Measured values reported in ChEMBL document CHEMBL3585246, “Design, synthesis and evaluation of novel 2-butyl-4-chloroimidazole derived peptidomimetics as Angiotensin Converting Enzyme (ACE) inhibitors” (Bioorg Med Chem, 2015).

Columns and labels:
[1] = biological target: T1, Angiotensin-converting enzyme (Oryctolagus cuniculus) (UniProt P12822); assay: Inhibition of rabbit lung ACE assessed as hippuryl-histidyl-leucine hydrolysis at 1 uM after 30 mins by colorimetric method
T1 sequence (whole entry): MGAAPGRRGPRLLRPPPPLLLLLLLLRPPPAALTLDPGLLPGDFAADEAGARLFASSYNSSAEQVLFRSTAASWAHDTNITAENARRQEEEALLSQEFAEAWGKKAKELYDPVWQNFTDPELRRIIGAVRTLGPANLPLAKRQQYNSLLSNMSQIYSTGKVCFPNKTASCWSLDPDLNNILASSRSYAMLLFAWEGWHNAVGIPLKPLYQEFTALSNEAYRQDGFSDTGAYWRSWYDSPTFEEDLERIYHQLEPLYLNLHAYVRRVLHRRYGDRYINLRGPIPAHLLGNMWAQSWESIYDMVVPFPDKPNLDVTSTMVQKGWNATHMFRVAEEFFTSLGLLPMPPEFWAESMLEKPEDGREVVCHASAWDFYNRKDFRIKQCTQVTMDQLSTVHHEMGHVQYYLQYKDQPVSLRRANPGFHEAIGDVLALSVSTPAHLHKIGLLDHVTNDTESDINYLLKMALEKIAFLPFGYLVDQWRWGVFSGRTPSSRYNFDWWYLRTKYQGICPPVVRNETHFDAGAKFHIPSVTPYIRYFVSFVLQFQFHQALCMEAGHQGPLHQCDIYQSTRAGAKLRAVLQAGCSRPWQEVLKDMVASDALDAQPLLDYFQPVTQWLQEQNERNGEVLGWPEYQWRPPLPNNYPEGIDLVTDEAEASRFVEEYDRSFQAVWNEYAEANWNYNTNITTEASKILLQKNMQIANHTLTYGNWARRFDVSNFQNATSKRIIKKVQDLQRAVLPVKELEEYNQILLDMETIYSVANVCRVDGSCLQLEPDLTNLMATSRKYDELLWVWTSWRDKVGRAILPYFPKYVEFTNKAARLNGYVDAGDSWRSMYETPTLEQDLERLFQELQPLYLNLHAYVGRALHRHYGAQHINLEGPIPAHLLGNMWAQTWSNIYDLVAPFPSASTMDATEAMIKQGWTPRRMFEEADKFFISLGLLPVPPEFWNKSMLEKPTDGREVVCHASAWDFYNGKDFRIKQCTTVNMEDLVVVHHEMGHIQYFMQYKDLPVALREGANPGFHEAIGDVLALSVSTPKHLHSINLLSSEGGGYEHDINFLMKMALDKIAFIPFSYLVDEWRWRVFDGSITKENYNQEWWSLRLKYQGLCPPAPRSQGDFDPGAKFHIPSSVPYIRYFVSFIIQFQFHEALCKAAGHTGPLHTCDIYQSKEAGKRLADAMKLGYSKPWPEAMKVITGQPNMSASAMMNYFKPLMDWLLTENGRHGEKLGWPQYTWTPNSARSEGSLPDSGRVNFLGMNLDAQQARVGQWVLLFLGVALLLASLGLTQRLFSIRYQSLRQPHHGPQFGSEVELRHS

[2] = biological target: T2, Angiotensin-converting enzyme (Oryctolagus cuniculus, UniProt P12822); assay: Inhibition of rabbit lung ACE assessed as hippuryl-histidyl-leucine hydrolysis after 30 mins by colorimetric method
T2 sequence (P12822 whole entry): T1 sequence (whole entry)

ACE (rabbit lung) [3] = assay: Ratio of IC50 for HEK cells to IC50 for rabbit lung ACE; format: cell-based, HEK293; details: read-out: Ratio IC50
ACE (rabbit lung) [4] = assay: Ratio of IC50 for human A549 cells to IC50 for rabbit lung ACE; format: cell-based; details: read-out: Ratio IC50

SMILES | inhibition [1] [%] | IC50 [2] [nM] | selectivity ratio (ACE (rabbit lung) [3]) | selectivity ratio (ACE (rabbit lung) [4])
CCCCc1nc(Cl)c(C(=O)N[C@H](C(=O)OC)C(C)C)n1C | 55 |  |  | 
CCCCc1nc(Cl)c(C(=O)N[C@H](C(=O)O)[C@H](C)CC)n1C | > 80 | 1120 | 1000 | 1000
CCCCc1nc(Cl)c(C(=O)N[C@H](C(=O)OC)[C@H](C)O)n1C | 55 |  |  | 
CCCCc1nc(Cl)c(C(=O)N[C@@H](CO)C(=O)O)n1C | 55 |  |  | 
CCCCc1nc(Cl)c(C(=O)N[C@@H](CCSC)C(=O)OC)n1C | 55 |  |  | 
CCCCc1nc(Cl)c(C(=O)N[C@@H](Cc2ccccc2)C(=O)O)n1C | 55 | 100 | 1000 | 1000
CCCCc1nc(Cl)c(C(=O)N[C@@H](C)C(=O)OC)n1C | 55 |  |  | 
CCCCc1nc(Cl)c(C(=O)N[C@H](C(=O)OC)[C@H](C)CC)n1C | 55 |  |  | 
CCCCc1nc(Cl)c(C(=O)N[C@H](C(=O)O)[C@H](C)O)n1C | 55 |  |  | 
CCCCc1nc(Cl)c(C(=O)N[C@@H](Cc2c[nH]c3ccccc23)C(=O)O)n1C | > 80 |  |  | 
CCCCc1nc(Cl)c(C(=O)N[C@@H](Cc2ccccc2)C(=O)OC)n1C | > 80 | 647 | 1000 | 1000
NCCCC[C@H](N[C@@H](CCc1ccccc1)C(=O)O)C(=O)N1CCC[C@H]1C(=O)O [LISINOPRIL ANHYDROUS] |  | 318 |  | 
CCCCc1nc(Cl)c(C(=O)N[C@H](C(=O)O)C(C)C)n1C | 55 |  |  | 
CCOC(=O)[C@H](CCc1ccccc1)N[C@H]1CCc2ccccc2N(CC(=O)O)C1=O [BENAZEPRIL] |  | 100 |  | 
CCCCc1nc(Cl)c(C(=O)NCC(=O)O)n1C | 55 |  |  | 
CCCCc1nc(Cl)c(C(=O)N[C@@H](C)C(=O)O)n1C | 55 |  |  | 
CCCCc1nc(Cl)c(C(=O)N[C@@H](CCSC)C(=O)O)n1C | > 80 | 657 | 1000 | 1000
CCCCc1nc(Cl)c(C(=O)N[C@@H](CO)C(=O)OC)n1C | 55 |  |  | 
CCCCc1nc(Cl)c(C(=O)N[C@@H](Cc2ccc(O)cc2)C(=O)OC)n1C | 55 |  |  | 
CCCCc1nc(Cl)c(C(=O)N[C@@H](Cc2c[nH]c3ccccc23)C(=O)OC)n1C | > 80 | 531 | 1000 | 1000
CCCCc1nc(Cl)c(C(=O)N[C@@H](Cc2ccc(O)cc2)C(=O)O)n1C | 55 |  |  | 
CCCCc1nc(Cl)c(C(=O)NCC(=O)OC)n1C | 55 |  |  | 
CCCCc1nc(Cl)c(C(=O)N[C@@H](CC(C)C)C(=O)OC)n1C | 55 |  |  | 
CCCCc1nc(Cl)c(C(=O)N[C@@H](CC(C)C)C(=O)O)n1C | 55 |  |  | 
